What is called IC50 is the concentration that inhibits the measured activity by half. Low readings indicate higher potency, high ones lower potency. The pIC50 is the negative decadic logarithm of the IC50, by convention in mol/L. A high value points to a low IC50.

The test addresses Smo (Homo sapiens, UniProt Q99835). In words: Bodipy-Cyclopamine Binding Assay (confirmation assay), Hek293-SMO cells. The following applies: for IC50: Smo IC50 (nM), confirmation assay, competition with 100 nM bodipy-cyclopamine, Hek293-SMO cells.

pIC50: −log10 of the molar value. Read-outs that look alike come from different tables or passages of the source.

Smo, sequence (Q99835 28-787): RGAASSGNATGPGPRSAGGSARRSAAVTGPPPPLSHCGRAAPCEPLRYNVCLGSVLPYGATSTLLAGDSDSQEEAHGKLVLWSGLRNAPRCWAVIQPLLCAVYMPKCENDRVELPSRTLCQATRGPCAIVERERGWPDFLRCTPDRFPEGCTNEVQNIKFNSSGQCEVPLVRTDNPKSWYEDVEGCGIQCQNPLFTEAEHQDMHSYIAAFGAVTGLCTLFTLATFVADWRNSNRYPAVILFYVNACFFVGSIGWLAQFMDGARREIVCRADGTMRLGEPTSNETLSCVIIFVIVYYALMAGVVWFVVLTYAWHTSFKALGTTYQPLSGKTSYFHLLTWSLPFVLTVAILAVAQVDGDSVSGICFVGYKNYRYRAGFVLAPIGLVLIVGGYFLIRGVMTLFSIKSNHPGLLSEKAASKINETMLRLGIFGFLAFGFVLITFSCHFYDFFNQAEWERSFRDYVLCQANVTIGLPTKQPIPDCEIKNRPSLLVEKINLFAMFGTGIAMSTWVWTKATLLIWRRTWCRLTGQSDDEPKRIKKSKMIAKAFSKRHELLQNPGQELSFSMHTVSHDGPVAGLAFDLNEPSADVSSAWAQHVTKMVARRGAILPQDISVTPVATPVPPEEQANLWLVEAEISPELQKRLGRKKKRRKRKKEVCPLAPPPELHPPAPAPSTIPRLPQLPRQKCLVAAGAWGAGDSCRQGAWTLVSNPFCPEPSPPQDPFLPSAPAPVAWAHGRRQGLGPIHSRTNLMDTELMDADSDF
Method: The confirmation assay is based on Bodipy-Cyclopamine Binding Assay:
Bodipy-Cyclopamine binding assay is a fluorescence based assay used to analysis the binding of Smo agonists. […] Bodipy-Cyclopamine was purchased from Toronto Research Chemicals and dissolved in methanol.
Hek293-SMO cells were plated in 96-well-plate (3340, Corning), the final cell concentration is 15,000 cells/well in 100 ul 1% serum-containing DMEM. The plates were incubated in 37 degree for additional 48 hours.
Hek293-SMO plate were washed with PBS and fixed with 4% paraformaldehyde (PFA)/PBS for 20 min at room temperature. After removing the PFA buffer, the cells were incubated with DAPI/PBS (5 ug/mL) for 10 min and followed by twice wash with PBS. After wash, cells were incubated for 2 h at room temperature in binding buffer (HBSS W/O Ca^2+ and Mg^2+) containing 100 nM bodipy-cyclopamine and compounds over a range of concentrations from 0-10 μM for competitive binding. After incubation, the cells were washed twice with the PBS. The fluorescence images were automatically captured and analyzed by a high content fluorescence imaging system (Arrayscan VTI, Thermo). GDC-0449 was used as reference compound to normalize the data. IC50 values were calculated with GraphPad Prism software using the sigmoidal dose-response function. The Ki was calculated following the Cheng-Prusoff equation, as Ki=IC50/[1+[bodipy-cyclopamine]/Kd)].

The compound `Cc1cnc(-c2cc(N3CCn4cc(C(=O)OCC5CC5)nc4C3)ncc2Cl)c(C)c1` [Compound A16, cyclopro-pylmeth-yl 7-(5′-chloro-3,5-dimethyl-2,4′-bipyridin-2′-yl)-5,6,7,8-tetrahydro-imidazo-[1,2-a]pyrazine-2-carboxylate] showed an IC50 of 442 nM.
Compound `CCOc1nc2c(s1)CN(c1cc(-c3ncc(C)cc3C)c(Cl)cn1)CC2` [Compound A46, 5-(5′-chloro-3,5-dimethyl-2,4′-bipyridin-2′-yl)-2-ethoxy-4,5,6,7-tetrahydro-thiazolo-[5,4-c]pyridine] had a pIC50 of 6.80.
For the compound `Cc1cnc(-c2cc(N3CCc4nc(NC5CC5)ncc4C3=O)ncc2Cl)c(C)c1` [Compound A99, 6-(5′-chloro-3,5-dimethyl-2,4′-bipyridin-2′-yl)-2-(cyclopropyl-amino)-7,8-dihydro-pyrido[4,3-d]pyrimidin-5(6H)-one], the pIC50 was 7.61.
For `CCOC(=O)c1cn2c(n1)CN(c1cc(-c3ncc(C)cc3C)c(Cl)cn1)CC2` [Compound A-1, ethyl 7-(5′-chloro-3,5-dimethyl-2,4′-bipyridin-2′-yl)-5,6,7,8-tetrahydro-imidazo-[1,2-a]pyrazine-2-carboxylate], the negative-log IC50 (pIC50) was 6.49.
`Cc1cnc(-c2cc(N3CCn4cc(C(=O)O)nc4C3)ncc2Cl)c(C)c1` [Compound A-2, 7-(5′-chloro-3,5-dimethyl-2,4′-bipyridin-2′-yl)-5,6,7,8-tetrahydro-imidazo-[1,2-a]pyrazine-2-carboxylic acid] had a pIC50 of less than 5.00.
As to `Cc1cnc(-c2cc(N3CCn4cc(C(=O)N5CCCC5)nc4C3)ncc2Cl)c(C)c1` [Compound A-3, (7-(5′-chloro-3,5-dimethyl-2,4′-bipyridin-2′-yl)-5,6,7,8-tetrahydroimidazo[1,2-a]pyrazin-2-yl)(pyrrolidin-1-yl)methanone], the pIC50 was 6.61.
On the same count and under the same terms, as for `Cc1cnc(-c2cc(N3CCn4cc(C(=O)N5CCC(O)CC5)nc4C3)ncc2Cl)c(C)c1` [Compound A-4, (7-(5′-chloro-3,5-dimethyl-2,4′-bipyridin-2′-yl)-5,6,7,8-tetrahydro-imidazo-[1,2-a]pyrazin-2-yl)(4-hydroxy-piperidin-1-yl)methanone], the figure is 6.19; as for `Cc1cnc(-c2cc(N3CCn4cc(C(=O)N5CCOCC5)nc4C3)ncc2Cl)c(C)c1` [Compound A-5, (7-(5′-chloro-3,5-dimethyl-2,4′-bipyridin-2′-yl)-5,6,7,8-tetrahydro-imidazo-[1,2-a]pyrazin-2-yl)(morpholino) methanone], 5.94.
`CNC(=O)c1cn2c(n1)CN(c1cc(-c3ncc(C)cc3C)c(Cl)cn1)CC2` [Compound A-6, 7-(5′-chloro-3,5-dimethyl-2,4′-bipyridin-2′-yl)-N-methyl-5,6,7,8-tetrahydro-imidazo-[1,2-a]pyrazine-2-carboxamide] gave a pIC50 of 5.90.
The same measure, in the same setting: next, `Cc1cnc(-c2cc(N3CCn4cc(C(=O)N5CC(C)NC(C)C5)nc4C3)ncc2Cl)c(C)c1` (centres unmarked) [Compound A-7, (7-(5′-chloro-3,5-dimethyl-2,4′-bipyridin-2′-yl)-5,6,7,8-tetrahydro-imidazo-[1,2-a]pyrazin-2-yl)(3,5-dimethyl-piperazin-1-yl)methanone]: 6.18; `Cc1cnc(-c2cc(N3CCn4cc(C(=O)N(C)CCO)nc4C3)ncc2Cl)c(C)c1` [Compound A-8, 7-(5′-chloro-3,5-dimethyl-2,4′-bipyridin-2′-yl)-N-(2-hydroxyethyl)-N-methyl-5,6,7,8-tetrahydro-imidazo-[1,2-a]pyrazine-2-carboxamide]: 5.70.
Compound `CCNC(=O)c1cn2c(n1)CN(c1cc(-c3ncc(C)cc3C)c(Cl)cn1)CC2` [Compound A-9, 7-(5′-chloro-3,5-dimethyl-2,4′-bipyridin-2′-yl)-N-ethyl-5,6,7,8-tetrahydro-imidazo-[1,2-a]pyrazine-2-carboxamide] showed a half-maximal inhibitory concentration (IC50) greater than 1000 nM.
Turning to `Cc1cnc(-c2cc(N3CCn4cc(CO)nc4C3)ncc2Cl)c(C)c1` [Compound A-10, (7-(5′-chloro-3,5-dimethyl-2,4′-bipyridin-2′-yl)-5,6,7,8-tetrahydro-imidazo-[1,2-a]pyrazin-2-yl)methanol], the half-inhibitory concentration (IC50) was greater than 1000 nM.
The compound `Cc1cnc(-c2cc(N3CCn4cc(CN5CCOCC5)nc4C3)ncc2Cl)c(C)c1` [Compound A-11, 4-((7-(5′-chloro-3,5-dimethyl-2,4′-bipyridin-2′-yl)-5,6,7,8-tetrahydroimidazo[1,2-a]pyrazin-2-yl)methyl)morpholine] gave a pIC50 of 6.17.
`Cc1cnc(-c2cc(N3CCn4cc(NC(=O)C(F)(F)F)nc4C3)ncc2Cl)c(C)c1` [Compound A-12, N-(7-(5′-chloro-3,5-dimethyl-2,4′-bipyridin-2′-yl)-5,6,7,8-tetrahydro-imidazo-[1,2-a]pyrazin-2-yl)-2,2,2-trifluoro-acetamide]: the negative logarithm of the IC50 (pIC50) was less than 6.00.
The compound `CCC(=O)Nc1cn2c(n1)CN(c1cc(-c3ncc(C)cc3C)c(Cl)cn1)CC2` [Compound A-13, N-(7-(5′-chloro-3,5-dimethyl-2,4′-bipyridin-2′-yl)-5,6,7,8-tetrahydroimidazo[1,2-a]pyrazin-2-yl)propionamide] showed a negative logarithm of the IC50 (pIC50) of less than 6.00.
`COCC(=O)Nc1cn2c(n1)CN(c1cc(-c3ncc(C)cc3C)c(Cl)cn1)CC2` [Compound A-14, N-(7-(5′-chloro-3,5-dimethyl-2,4′-bipyridin-2′-yl)-5,6,7,8-tetrahydro-imidazo-[1,2-a]pyrazin-2-yl)-2-methoxy-acetamide]: the negative logarithm of the IC50 (pIC50) is less than 6.00.
Compound `Cc1cnc(-c2cc(N3CCn4cc(C(=O)OC(C)C)nc4C3)ncc2Cl)c(C)c1` [Compound A-15, isopropyl 7-(5′-chloro-3,5-dimethyl-2,4′-bipyridin-2′-yl)-5,6,7,8-tetrahydro-imidazo-[1,2-a]pyrazine-2-carboxylate] gave a pIC50 of 6.23.
On the same count and under the same terms, as for `Cc1cnc(-c2cc(N3CCn4cc(C(=O)OC5CCCC5)nc4C3)ncc2Cl)c(C)c1` [Compound A-17, cyclopentyl 7-(5′-chloro-3,5-dimethyl-2,4′-bipyridin-2′-yl)-5,6,7,8-tetrahydro-imidazo-[1,2-a]pyrazine-2-carboxylate], the figure is less than 6.00; as for `Cc1cnc(-c2cc(N3CCn4cc(C(=O)Oc5ccccc5)nc4C3)ncc2Cl)c(C)c1` [Compound A-18, phenyl 7-(5′-chloro-3,5-dimethyl-2,4′-bipyridin-2′-yl)-5,6,7,8-tetrahydro-imidazo-[1,2-a]pyrazine-2-carboxylate], less than 6.00.
`Cc1cnc(-c2cc(N3CCn4cc(C(=O)Nc5ccccc5)nc4C3)ncc2Cl)c(C)c1` [Compound A-19, 7-(5′-chloro-3,5-dimethyl-2,4′-bipyridin-2′-yl)-N-phenyl-5,6,7,8-tetrahydro-imidazo-[1,2-a]pyrazine-2-carboxamide] returned an IC50 of 311 nM.
In turn, `Cc1cnc(-c2cc(N3CCn4cc(C(=O)Nc5ccccc5F)nc4C3)ncc2Cl)c(C)c1` [Compound A-20, 7-(5′-chloro-3,5-dimethyl-2,4′-bipyridin-2′-yl)-N-(2-fluorophenyl)-5,6,7,8-tetrahydro-imidazo-[1,2-a]pyrazine-2-carboxamide] showed a pIC50 of 6.29.
On the same count and under the same terms, as for `Cc1cnc(-c2cc(N3CCn4cc(C(=O)Nc5ccc(F)cc5)nc4C3)ncc2Cl)c(C)c1` [Compound A-21, 7-(5′-chloro-3,5-dimethyl-2,4′-bipyridin-2′-yl)-N-(4-fluorophenyl)-5,6,7,8-tetrahydro-imidazo-[1,2-a]pyrazine-2-carboxamide], the figure is less than 6.00; as for `Cc1cnc(-c2cc(N3CCc4nc(N)sc4C3)ncc2Cl)c(C)c1` [Compound A-22, 5-(5′-chloro-3,5-dimethyl-2,4′-bipyridin-2′-yl)-4,5,6,7-tetrahydro-thiazolo-[5,4-c]pyridin-2-amine], 6.11.
The same measure, in the same setting: next, `CC(=O)Nc1nc2c(s1)CN(c1cc(-c3ncc(C)cc3C)c(Cl)cn1)CC2` [Compound A-23, N-(5-(5′-chloro-3,5-dimethyl-[2,4′-bipyridin]-2′-yl)-4,5,6,7-tetrahydrothiazolo[5,4-c]pyridin-2-yl)acetamide]: 6.44; `Cc1cnc(-c2cc(N3CCc4nc(NC(=O)C(C)C)sc4C3)ncc2Cl)c(C)c1` [Compound A-24, N-(5-(5′-chloro-3,5-dimethyl-2,4′-bipyridin-2′-yl)-4,5,6,7-tetrahydro-thiazolo-[5,4-c]pyridin-2-yl)isobutyr-amide]: 7.23; `CCC(=O)Nc1nc2c(s1)CN(c1cc(-c3ncc(C)cc3C)c(Cl)cn1)CC2` [Compound A-25, N-(5-(5′-chloro-3,5-dimethyl-2,4′-bipyridin-2′-yl)-4,5,6,7-tetrahydro-thiazolo-[5,4-c]pyridin-2-yl)propion-amide]: 7.00.
Same read-out and setting: as for `Cc1cnc(-c2cc(N3CCc4nc(NC(=O)C5CC5)sc4C3)ncc2Cl)c(C)c1` [Compound A-26, N-(5-(5′-chloro-3,5-dimethyl-2,4′-bipyridin-2′-yl)-4,5,6,7-tetrahydro-thiazolo-[5,4-c]pyridin-2-yl)cyclo-propane carboxamide], the figure is 7.15.
Consider `COCC(=O)Nc1nc2c(s1)CN(c1cc(-c3ncc(C)cc3C)c(Cl)cn1)CC2` [Compound A-27, N-(5-(5′-chloro-3,5-dimethyl-2,4′-bipyridin-2′-yl)-4,5,6,7-tetrahydro-thiazolo-[5,4-c]pyridin-2-yl)-2-methoxy-acetamide], for which the pIC50 was 6.37.
In turn, `Cc1cnc(-c2cc(N3CCc4nc(NC(=O)C(C)(C)C)sc4C3)ncc2Cl)c(C)c1` [Compound A-28, N-(5-(5′-chloro-3,5-dimethyl-2,4′-bipyridin-2′-yl)-4,5,6,7-tetrahydro-thiazolo-[5,4-c]pyridin-2-yl)pivalamide] gave a pIC50 of 6.90.
On the same count and under the same terms, as for `Cc1cnc(-c2cc(N3CCc4nc(N5CCOCC5)sc4C3)ncc2Cl)c(C)c1` [Compound A-29, 4-(5-(5′-chloro-3,5-dimethyl-[2,4′-bipyridin]-2′-yl)-4,5,6,7-tetrahydrothiazolo[5,4-c]pyridin-2-yl)morpholine], the figure is 6.77; as for `Cc1cnc(-c2cc(N3CCc4nc(N5CC(C)NC(C)C5)sc4C3)ncc2Cl)c(C)c1` (centres unmarked) [Compound A-30, 5-(5′-chloro-3,5-dimethyl-2,4′-bipyridin-2′-yl)-2-(3,5-dimethyl-piperazin-1-yl)-4,5,6,7-tetrahydro-thiazolo-[5,4-c]pyridine], 7.16.

These data come from patent publication US9695178B2, “6-(2-pyridyl)-7,8-dihydro-5H-pyrido[4,3-D]pyrimidine analogs as hedgehog pathway signaling inhibitors and therapeutic applications thereof” (Suzhou Yunxuan Yiyao Keji Youxian Gongsi, priority 2013, dated 2017).
